Laboratory results reported in patent US5373000A, “7Beta-(thiadiazolyl)-2-iminoacetamido-3cephem compounds” (Eisai Co., Ltd., priority 1985, dated 1994).
In brackets after ≈: the same amount, converted by molar mass.

Experiments:
[1] = tested on: Pseud. aeruginosa EP-01; assay: Antibacterial activities, MIC; format: cell-based; details: Pseudomonas aeruginosa, EP01, Pseud. aeruginosa EP-01; read-out: MIC
[2] = tested on: Morg. morganii EP-14; assay: Antibacterial activities, MIC; format: cell-based; details: Morganella morganii, EP14, Morg. morganii EP-14; read-out: MIC
[3] = tested on: Ser. marcescens ES-75; assay: Antibacterial activities, MIC; format: cell-based; details: Serratia marcescens, ES75, read-out: MIC
[4] = tested on: Escher. coli NIHJ; assay: Antibacterial activities, MIC; format: cell-based; details: Escherichia coli, read-out: MIC
[5] = tested on: Staph. aureus 209-P; assay: Antibacterial activities, MIC; format: cell-based; details: Staphylococcus aureus, read-out: MIC
[6] = in vivo; details: mouse, iv
[7] = tested on: Kleb Pneumoniae EK-6; assay: Antibacterial activities, MIC; format: cell-based; details: read-out: MIC

| SMILES | MIC [1] | MIC [2] | MIC [3] | MIC [4] | MIC [5] | LD50 [6] | MIC [7] |
| --- | --- | --- | --- | --- | --- | --- | --- |
| CO/N=C(\C(=O)N[C@@H]1C(=O)N2C(C(=O)[O-])=C(/C=C/C[N+](C)(C)[C@H](CO)C(N)=O)CS[C@H]12)c1nsc(N)n1 [Example 39, 7β-[2-(5-Amino-1,2,4-thiadiazol-3-yl)-(Z)-2-methoxyiminoacetamide]-3-[(E)-3-[(1R-carbamoyl-2-hydroxyethyl)dimethylammonio]-1-propenyl]-3-cephem-4-carboxylate] | 0.8 µg/mL (≈ 1.44 µM) | 0.05 µg/mL (≈ 0.0902 µM) | 0.1 µg/mL (≈ 0.18 µM) | 0.05 µg/mL (≈ 0.0902 µM) | 0.4 µg/mL (≈ 0.721 µM) | ≥ 3000 mg/kg | ≤ 0.025 µg/mL |
| CC[N+](C)(C/C=C/C1=C(C(=O)[O-])N2C(=O)[C@@H](NC(=O)/C(=N\OC)c3nsc(N)n3)[C@H]2SC1)CC(N)=O (stereo partly drawn) [Example 40] | 0.8 µg/mL (≈ 1.49 µM) | ≤ 0.025 µg/mL | 0.05 µg/mL (≈ 0.0928 µM) | ≤ 0.025 µg/mL | 0.2 µg/mL (≈ 0.371 µM) | ≥ 3000 mg/kg | ≤ 0.025 µg/mL |
| CO/N=C(\C(=O)N[C@@H]1C(=O)N2C(C(=O)[O-])=C(/C=C/C[N+]34CCOC(C)(C3)OCC4)CS[C@H]12)c1nsc(N)n1 [Example 41, 7β-[2-(5-Amino-1,2,4-thiadiazol-3-yl)-(Z)-2-methoxyiminoacetamide]-3-[(E)-3-(5-aza-1-methyl-2,8-diozabicyclo[3,3,1]nonan-5-io)-1-propenyl]-3-cephem-4-carboxylate] | 1.56 µg/mL (≈ 2.76 µM) | 0.05 µg/mL (≈ 0.0884 µM) | 0.1 µg/mL (≈ 0.177 µM) | 0.05 µg/mL (≈ 0.0884 µM) | 0.4 µg/mL (≈ 0.707 µM) | ≥ 3000 mg/kg | 0.05 µg/mL (≈ 0.0884 µM) |
